SMILES strings stand for the structures.

The test system of the test is LC3 protein fused to ZsGreen. Briefly: zebrafish autophagy reporter (LC3-ZsGreen, skeletal muscle specific promoter), number of LC3 punctae. In kind it is in vivo. The settings on record: zebrafish larvae treated at 48 h post-fertilization, 0.25 to 10 mM, 16 hours of treatment. As to the method: After 16 hours of treatment larvae were anesthetized with 0.016% tricaine and imaged with ImageXpress confocal system at 20× magnification (Molecular Devices). Z stack images were captured for each larva and maximal projection images were produced. Number of LC3 punctae have been calculated with MetaXpress software (Moleculare Devices) and normalized by fish area.
For the compound `N=C(N)NCCC[C@H](N)C(=O)O` [Arginine], the “effect on autophagy (number of LC3 punctae normalized by fish area)” value was “reduce basal autophagy”.

Turning to `N[C@@H](CS)C(=O)O` [Cysteine], the “effect on autophagy (number of LC3 punctae normalized by fish area)” value is “strongly induce autophagy”.

`N[C@@H](CCC(=O)O)C(=O)O` [Glutamate]: the “effect on autophagy (number of LC3 punctae normalized by fish area)” value was “strongly induce autophagy”.

Take `NC(=O)CC[C@H](N)C(=O)O` [Glutamine]: the “effect on autophagy (number of LC3 punctae normalized by fish area)” value is given as “reduce basal autophagy”.

With `NCC(=O)O` [Glycine], the “effect on autophagy (number of LC3 punctae normalized by fish area)” value is “strongly induce autophagy”.

Take `CC[C@H](C)[C@H](N)C(=O)O` [Isoleucine]: the “effect on autophagy (number of LC3 punctae normalized by fish area)” value was “reduce basal autophagy”.

Consider `CC(C)C[C@H](N)C(=O)O` [Leucine], for which the “effect on autophagy (number of LC3 punctae normalized by fish area)” value was “reduce basal autophagy”.

On to `CSCC[C@H](N)C(=O)O` [Methionine], for which the “effect on autophagy (number of LC3 punctae normalized by fish area)” value is listed as “strongly induce autophagy”.

Consider `CC(=O)N[C@@H](CS)C(=O)O` [N-Acetyl Cysteine], for which the “effect on autophagy (number of LC3 punctae normalized by fish area)” value is on record as “strongly induce autophagy”.

On to `O=C(O)[C@@H]1CCCN1` [Proline], for which the “effect on autophagy (number of LC3 punctae normalized by fish area)” value is on record as “strongly induce autophagy”.

Consider `N[C@@H](CO)C(=O)O` [Serine], for which the “effect on autophagy (number of LC3 punctae normalized by fish area)” value is listed as “strongly induce autophagy”.

`N[C@@H](Cc1ccc(O)cc1)C(=O)O` [Tyrosine]: the “effect on autophagy (number of LC3 punctae normalized by fish area)” value is listed as “strongly induce autophagy”.

`CC(C)[C@H](N)C(=O)O` [Valine]: the “effect on autophagy (number of LC3 punctae normalized by fish area)” value is on record as “strongly induce autophagy”.
